Assay: gradient 5% acetonitrile 3 min, to 50% in 2 min, to 85% in 15 min, held 3 min, 100 µL/min
Details: column: Zorbax Extend-C18 2.1 x 50 mm; eluents: water / acetonitrile, 0.1% formic acid
Outline: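 In both positive and negative ionization mode, a quadrupole time-of-flight mass spectrometer coupled to HPLC analyzed pure standards run in mixtures of ~100 molecules. The Zorbax Extend-C18 column (2.1 × 50 mm, 1.8 μm) was operated at 100 μL/min with water and acetonitrile, each containing 0.1% formic acid. The dead volume was 40 μL and the dwell volume 900 μL. Retention time came from adduct peaks that were computationally picked and individually inspected by hand.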

Row | SMILES | RP-LC retention time [s]
1 | CCOC(=O)C1CCCN(C(=O)CCCOc2cc(=O)n(C)c3ccccc23)C1 (stereo unspecified) | 800
2 | Cc1nc2nc(-c3ccc(C(C)(C)C)cc3)nn2c(C)c1CC(=O)N1CCCCC1 | 1040
3 | O=C(NCc1ccccc1)NCC1CCOCC1 | 651
4 | Cc1ncoc1C(=O)N1CC(Oc2ccc(-c3nc(-c4ccccc4)no3)cc2)C1 | 1040
5 | CCS(=O)(=O)c1nc2ccc(NS(=O)(=O)c3cccc(Cl)c3)cc2s1 | 928
6 | CCOc1cccc(-c2noc(Cn3c(=O)n(Cc4cccc(OC)c4)c(=O)c4sccc43)n2)c1 | 1150
7 | Cc1nn(C)c(C)c1CCN(C)c1ccc(C(=O)O)cc1NC(=O)c1ccc(Cl)cc1 | 780
8 | Cc1ccc(N2CC(NC(=O)NCc3ccco3)CC2=O)cc1C (stereo unspecified) | 682
9 | COC(=O)c1cccc(NC(=O)C2CC(=O)N(c3ccc4c(c3)CCN4C(C)=O)C2)c1 (stereo unspecified) | 687
10 | COc1ccccc1CNC(=O)Cn1nc2cc(-c3ccccn3)nc(C)n2c1=O | 629
11 | O=C(Nc1nc2c(s1)CN(C(=O)c1cc(-c3ccccc3)on1)CC2)C1CCCO1 (stereo unspecified) | 785
12 | O=C(Nc1ccc(F)cc1F)c1ccc2ncsc2c1 | 713
13 | CN(C)c1ccc(C(CNC(=O)c2ccco2)N2CCc3ccccc3C2)cc1 (stereo unspecified) | 582
14 | O=C(c1ccco1)N1CCc2nc(OCC3CC3)ccc2C1 | 821
15 | Cc1cc(C(=O)Nc2ccc(C)c(F)c2)n(CC(=O)Nc2ccc(F)cc2)n1 | 922
16 | Cc1ccc(N2C(=O)C3N=NN(Cc4nc(-c5ccc(Br)cc5)no4)C3C2=O)cc1C (stereo unspecified) | 1130
17 | CC(C)(C)NC(=O)N1CCC(CNC(=O)C(=O)Nc2ccccc2Cl)CC1 | 836
18 | Cc1ccc(CN2CCC(CNC(=O)c3c(C)oc4c3C3=NCCN3C=N4)C2)cc1 (stereo unspecified) | 597

Row | SMILES | RP-LC retention time [s]
19 | Cn1cc(CCNC(=O)NCc2ccco2)c2cccnc21 | 593
20 | Cc1nnc(-c2ccc3ccn(CC(=O)Nc4ccccc4Cl)c3c2)o1 | 963
21 | O=C(c1ccc(OC(F)(F)F)cc1)N1C[C@@H]2C[C@H]1C[C@@H]2NS(=O)(=O)c1cccnc1 | 761
22 | CC1CCCN(C(=O)Cc2nnc3cc(-c4nc(C5CC5)no4)ccn23)C1 (stereo unspecified) | 759
23 | CCOC(=O)c1c(C)[nH]c(C(=O)N2CCCC(C(=O)NCCN3CCCC3)C2)c1C (stereo unspecified) | 603
24 | Cc1cc(OCC(=O)Nc2ccccc2C(F)(F)F)nc(N2CCN(c3ccccc3)CC2)n1 | 971
25 | COc1cc(OC)c(NC(=O)C2CCCN(c3ncnc4c3nc3n4CCCCC3)C2)cc1Cl (stereo unspecified) | 862
26 | COc1ccc(S(=O)(=O)N2CCC(n3cnnc3-c3ccccc3)CC2)cc1Cl | 815
27 | Cc1cccc(-c2nc(-c3ccc4c(c3)nc(C)c(=O)n4C)no2)c1 | 1120
28 | COc1nc2ccccc2nc1N1CCCC(C(=O)Nc2cc(C)c(Br)cc2C)C1 (stereo unspecified) | 1290
29 | CCN1C(=O)c2ccccc2Oc2ccc(C(=O)N3CCN(c4cc(C)ccc4C)CC3)cc21 | 1190
30 | O=C(NCc1cccs1)C1CCN(S(=O)(=O)c2cc(-c3noc(C4CC4)n3)cs2)CC1 | 910
31 | COc1cccc(-c2cc3c(=O)n(CC(O)c4ccc(C(C)C)cc4)ccn3n2)c1 (stereo unspecified) | 1060
32 | O=C1COc2cc(S(=O)(=O)N3CCCC3C(=O)N3CCOCC3)c(Cl)cc2N1 (stereo unspecified) | 628
33 | O=C(C1CCCN(c2cnc3nccnc3c2)C1)N1CCCCCC1 (stereo unspecified) | 692
34 | COc1cc(C2CC(=O)c3c([nH]c(C(=O)OC4CCCCCC4)c3C)C2)cc(OC)c1OC (stereo unspecified) | 1160
35 | CCN1CCCc2cc(C(=O)NC3CCCC3)sc21 | 961
36 | CCCOc1cc(N2CCN(C(=O)CC(C)C)CC2)nc(C)n1 | 597
